For one molecule, Ki and IC50 results are on record in paper PMC6269737, “Effect of Honokiol on Cytochrome P450 and UDP-Glucuronosyltransferase Enzyme Activities in Human Liver Microsomes” (Molecules, 2013).

Common to all, as to assay: biochemical
Test [1] addresses T1, CYP2B6 (Homo sapiens, UniProt P20813).
T1 sequence (P20813 1-491): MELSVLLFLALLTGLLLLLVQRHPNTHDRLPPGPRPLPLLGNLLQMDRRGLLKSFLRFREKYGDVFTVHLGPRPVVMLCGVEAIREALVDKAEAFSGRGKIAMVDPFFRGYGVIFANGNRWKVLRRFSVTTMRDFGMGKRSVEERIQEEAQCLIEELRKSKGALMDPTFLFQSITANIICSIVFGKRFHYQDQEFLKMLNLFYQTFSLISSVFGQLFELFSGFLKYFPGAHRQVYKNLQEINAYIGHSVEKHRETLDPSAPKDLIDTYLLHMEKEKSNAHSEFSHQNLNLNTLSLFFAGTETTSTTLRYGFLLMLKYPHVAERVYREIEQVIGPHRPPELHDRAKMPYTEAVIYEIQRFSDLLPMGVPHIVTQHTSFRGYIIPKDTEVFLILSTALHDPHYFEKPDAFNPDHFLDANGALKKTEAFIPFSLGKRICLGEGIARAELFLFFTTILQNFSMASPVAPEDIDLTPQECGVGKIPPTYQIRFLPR
The note with it: for IC50: IC50 (μM) of honokiol, Bupropion hydroxylation. As to the method: (§1) The inhibitory potential (IC50 values) of honokiol on CYP activities was evaluated in pooled human liver microsomes using liquid chromatography-tandem mass spectrometry (LC-MS/MS). […] Honokiol was dissolved in acetonitrile. […] After a 3 min preincubation at 37 °C, the reactions were initiated by addition of an NADP generating system and incubated for 15 min at 37 °C in a shaking water bath. The reaction was then stopped by placement of the tubes on ice and adding 100 μL of ice-cold methanol containing internal standards (^13C2, ^15N-acetaminophen for acetaminophen and N-deethylamodiaquine, and d9-1-hydroxybufuralol for 4-hydroxydiclofenac, 4-hydroxybupropion, 7-hydroxycoumarin, 4-hydroxymephenytoin, 1'-hydroxybufuralol, and 1'-hydroxymidazolam). The incubation mixtures were then centrifuged at 13,000 × g for 4 min. All incubations were performed in triplicate, and average values were used.
(§2) The reaction was initiated by the addition of the cocktail containing seven CYP probe substrates and bupropion.
(§3) The metabolites formed from the seven CYP cocktail substrates were simultaneously determined according to our previously described LC-MS/MS method with minor modification; the concentration of 4-hydroxybupropion for CYP2B6 activity was quantified separately by LC-MS/MS. A tandem mass spectrometer (TSQ Quantum Access, Thermo Scientific, San Jose, CA, USA) coupled with a Nanospace SI-2 LC system (Tokyo, Japan) was used. The column and autosampler temperatures were 50 °C and 6 °C, respectively. The mass spectrometer was equipped with an electrospray ionization (ESI) source and operated in positive ion mode. The ESI source settings for ionization of the metabolites were as follows: capillary voltage, 4200 V; vaporizer temperature, 350 °C; capillary temperature 330 °C; sheath gas pressure, 35 psi; auxiliary gas pressure, 15 psi. Quantification was performed by selected reaction monitoring (SRM) of [M+H]^+ ions and the related product ions for each metabolite. […] Analytical data were processed using Xcalibur® software (Thermo Scientific).
(§4) The incubation mixtures were centrifuged at 13,000 × g for 4 min, and the supernatants were diluted as follows: dilution of 20 μL supernatant with 180 μL of 25% methanol for CYP2C8; dilution of 50 μL supernatant with 50 μL of water for CYP2C9, CYP2C19, CYP2D6, and CYP1A2; and dilution of 20 μL supernatant with 80 μL of water for CYP2B6. Aliquots (5 μL) of the diluted supernatants were then analyzed by LC-MS/MS.
(§5) The apparent kinetic parameters for inhibitory potential (Ki values) were estimated from the fitted curves using Enzyme Kinetics Ver. 1.1 software (Systat Software Inc.).

Test [2] deals with T2, CYP2C8 (Homo sapiens, UniProt P10632).
T2 sequence (P10632 1-490): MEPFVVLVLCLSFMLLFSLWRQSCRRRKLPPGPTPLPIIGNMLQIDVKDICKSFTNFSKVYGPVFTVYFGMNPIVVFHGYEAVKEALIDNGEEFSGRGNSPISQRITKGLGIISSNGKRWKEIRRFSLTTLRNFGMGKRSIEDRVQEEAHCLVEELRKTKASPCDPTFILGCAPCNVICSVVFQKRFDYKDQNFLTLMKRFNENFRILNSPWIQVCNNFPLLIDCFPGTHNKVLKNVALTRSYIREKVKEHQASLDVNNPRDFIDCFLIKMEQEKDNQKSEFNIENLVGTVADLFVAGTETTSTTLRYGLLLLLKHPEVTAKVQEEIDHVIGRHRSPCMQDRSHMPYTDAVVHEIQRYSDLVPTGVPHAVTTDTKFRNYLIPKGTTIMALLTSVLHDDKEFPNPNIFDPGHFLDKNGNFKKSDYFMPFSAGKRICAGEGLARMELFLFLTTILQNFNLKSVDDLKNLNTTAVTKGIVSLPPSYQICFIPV
The note with it: for IC50: IC50 (μM) of honokiol, Amodiaquine N-deethylation. Here is the method: as §1, §2, §3, §4, §5

Test [3] concerns the target CYP2C9 (Homo sapiens, UniProt P11712). Particulars: for IC50: IC50 (μM) of honokiol, Diclofenac 4-hydroxylation. Here is the method: as §1, §2, §3, §4, §5
Test [4] deals with CYP2D6 (Homo sapiens, UniProt P10635). The note with it: for IC50: IC50 (μM) of honokiol, Bufuralol 1'-hydroxylation. Here is the method: as §1, §2, §3, §4, §5
[5] abbreviates: with preincubation, 30 min preincubation with NADPH.

The Ki is the dissociation constant of the complex between target and ligand, obtained from inhibition or displacement. One may read the IC50 as the concentration at which inhibition is half-maximal. Low readings indicate greater potency, high ones weaker potency.

Chain of CYP2D6 (P10635 whole entry): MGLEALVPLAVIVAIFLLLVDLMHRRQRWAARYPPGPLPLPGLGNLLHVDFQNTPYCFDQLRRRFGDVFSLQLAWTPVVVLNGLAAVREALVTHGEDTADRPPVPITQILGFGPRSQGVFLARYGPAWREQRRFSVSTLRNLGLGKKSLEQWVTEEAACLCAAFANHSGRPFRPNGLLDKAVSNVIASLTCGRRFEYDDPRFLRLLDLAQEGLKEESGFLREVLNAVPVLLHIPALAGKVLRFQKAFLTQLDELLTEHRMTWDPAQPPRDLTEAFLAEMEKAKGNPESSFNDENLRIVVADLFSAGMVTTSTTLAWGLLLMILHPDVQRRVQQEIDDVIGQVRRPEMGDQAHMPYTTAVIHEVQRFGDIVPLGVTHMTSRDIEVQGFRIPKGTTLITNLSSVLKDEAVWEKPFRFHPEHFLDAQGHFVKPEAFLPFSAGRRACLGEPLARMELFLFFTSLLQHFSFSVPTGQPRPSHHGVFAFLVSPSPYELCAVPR
Chain of CYP2C9 (P11712 whole entry): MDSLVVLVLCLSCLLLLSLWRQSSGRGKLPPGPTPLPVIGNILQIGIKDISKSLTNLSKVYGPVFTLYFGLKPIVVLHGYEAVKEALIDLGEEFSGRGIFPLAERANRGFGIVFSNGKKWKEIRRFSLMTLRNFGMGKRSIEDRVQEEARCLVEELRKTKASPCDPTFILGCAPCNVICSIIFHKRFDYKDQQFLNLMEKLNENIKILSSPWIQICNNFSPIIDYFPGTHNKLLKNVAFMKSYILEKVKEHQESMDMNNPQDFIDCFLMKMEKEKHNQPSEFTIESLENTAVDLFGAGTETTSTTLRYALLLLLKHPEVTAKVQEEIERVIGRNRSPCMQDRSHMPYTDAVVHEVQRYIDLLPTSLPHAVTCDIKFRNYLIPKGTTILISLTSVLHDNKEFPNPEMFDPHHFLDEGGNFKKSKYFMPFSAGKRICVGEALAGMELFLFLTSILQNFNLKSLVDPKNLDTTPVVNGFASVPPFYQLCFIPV

`C=CCc1ccc(O)c(-c2ccc(O)c(CC=C)c2)c1` [honokiol, 2-(4-hydroxy-3-prop-2-enyl-phenyl)-4-prop-2-enyl-phenol]: the inhibition constant Ki in test [1] was 17.5 µM; in test [2], 4.9 µM; in test [3] it was 540 nM; in test [4], 12 µM. Further, the IC50 was determined as 13.8 µM in test [1] (no preincubation, 50 μM bupropion, pooled HLM (H161)); 20.8 µM in test [1] (setting [5]); 8.9 µM in test [2] (no preincubation, 2.5 μM amodiaquine, pooled HLM (H161)); 15.5 µM in test [2] (setting [5]); 4.1 µM in test [3] (no preincubation, 10 μM diclofenac, pooled HLM (H161)); 3.9 µM in test [3] (setting [5]). The IC50 in test [4] (no preincubation, 5.0 μM bufuralol, pooled HLM (H161)) came out at 14 µM; in test [4] (setting [5]), 38.1 µM.
